Reference: patent publication US8039458B2, “HIV integrase inhibitors” (priority 2005, dated 2011)
pEC50, pKi: −log10 of the molar value.

Key:
[1] = target: T1, HIV-Integrase (Human immunodeficiency virus type 1 group M subtype B, UniProt P12497); experiment: HIV-Integrase binding assay (competition with [3H]-compound I, SPA); settings: competitive binding vs [3H]-compound I to purified integrase; Ki by Cheng and Prusoff; read-out: in vitro binding
T1 construct: Recombinant integrase (0.26 ng) was incubated with the beads
Experimental: HIV-Integrase Inhibition Activity. To evaluate in-vitro activity against HIV-integrase, 5 pmole of biotin labeled substrate DNA was bound to 100 μg of Streptavidin coated PVT SPA beads (Amersham Pharmacia Biotech). Recombinant integrase (0.26 ng) was incubated with the beads for 90 min at 37° C. Unbound enzyme was removed by washing the complex followed by addition of inhibitors and 0.1 fmol of P33 labeled target DNA. The reaction was stopped by adding EDTA to a final concentration of 10 mM. Samples were counted in TopCountNXT (Packard) and the CPM was used as a measure of integration. The reaction condition was as described in A. Engelman and R. Craigie, J. Virol. 69, 5908-5911 (1995). The sequences of substrate and target DNA were described in Nucleic Acid Research 22,1121-1122 (1994).
HIV-Integrase binding assay. In this assay competitive binding experiments with test compounds and a radiolabeled integrase inhibitor (compound I) are performed against purified integrase. SPA bead/DNA/enzyme complexes were prepared as for the integrase inhibition assay except, to each well, 0.69 μl of integrase enzyme ([…]) was used per 2 μl of LTR DNA-attached scintillation proximity beads (stock 50 mg/ml). Binding reactions were carried out in 96-well white polystyrene assay plates (Corning, #3600). The following was added sequentially to each well: 20 μl of water or 20 μl of human serum (Cellgro Cat# 35-060-CL), 5 μl of serially diluted compound (in 50% DMSO/50% integrase SPA buffer), 5 μl of [^3H]-compound I (6,000 cpm/μl in SPA buffer) and 20 μl of bead/DNA/enzyme complex. The plates were shaken for 2 hours and then allowed to sit at room temperature without shaking overnight. The [^3H]-compound I binding was measured using a Topcount scintillation counter. Cheng and Prusoff equations were used to convert the inhibition of compound 1 binding into the corresponding Ki value. Activity equal to A refers to a compound having Ki=0.001 to 0.003 μM while B and C denote compounds having Ki=0.003 to 0.05 μM and Ki≧0.050 μM respectively.

[2] = system: recombinant NL-Rluc virus; experiment: Inhibition of HIV replication (NL-RLuc virus, Renilla luciferase); format: cell-based; settings: Human immunodeficiency virus 1, read-out: antiviral actitively

| SMILES | pKi [1] | pEC50 [2] | melting point |
| --- | --- | --- | --- |
| O=C(NCc1ccc(F)cc1)c1nc2n(c(=O)c1O)CCOCC2 [Example 31, N-((4-fluorophenyl)methyl)-3-hydroxy-4-oxo-6,7,9,10-tetrahydro-4H-pyrimido[1,2-d][1,4]oxazepine-2-carboxamide] | 7.30 to 8.52 | < 7.30 | 197 to 199 °C |
| Cc1ncn(-c2cc(F)ccc2CNC(=O)c2nc3n(c(=O)c2O)CCOCC32CCOCC2)n1 [Example 35, N-((4-fluoro-2-(3-methyl-1H-1,2,4-triazol-1-yl)phenyl)methyl)-3′-hydroxy-4′-oxo-2,3,5,6,6′,7′-hexahydro-4′H-spiro[pyran-4,10′-pyrimido[1,2-d][1,4]oxazepine]-2′-carboxamide] | 7.30 to 8.52 | 8.00 to 9.00 |  |
| Cc1ncnn1-c1cc(F)ccc1CNC(=O)c1nc2n(c(=O)c1O)CCOCC21CCOCC1 [Example 36, N-((4-fluoro-2-(5-methyl-1H-1,2,4-triazol-1-yl)phenyl)methyl)-3′-hydroxy-4′-oxo-2,3,5,6,6′,7′-hexahydro-4′H-spiro[pyran-4,10′-pyrimido[1,2-d][1,4]oxazepine]-2′-carboxamide] | 7.30 to 8.52 | 8.00 to 9.00 |  |
| Cc1cnnn1-c1cc(F)ccc1CNC(=O)c1nc2n(c(=O)c1O)CCOCC21CCOCC1 [Example 37, N-((4-fluoro-2-(5-methyl-1H-1,2,3-triazol-1-yl)phenyl)methyl)-3′-hydroxy-4′-oxo-2,3,5,6,6′,7′-hexahydro-4′H-spiro[pyran-4,10′-pyrimido[1,2-d][1,4]oxazepine]-2′-carboxamide] | 7.30 to 8.52 | 7.30 to 8.00 |  |
| CN1CCN(c2cc(F)ccc2CNC(=O)c2nc3n(c(=O)c2O)CCOCC32CCOCC2)C1=O [Example 38, N-((4-fluoro-2-(3-methyl-2-oxo-1-imidazolidinyl)phenyl)methyl)-3′-hydroxy-4′-oxo-2,3,5,6,6′,7′-hexahydro-4′H-spiro[pyran-4,10′-pyrimido[1,2-d][1,4]oxazepine]-2′-carboxamide] | 7.30 to 8.52 | 8.00 to 9.00 |  |
| O=C(NCc1ccc(F)cc1-n1ncnc1CF)c1nc2n(c(=O)c1O)CCOCC21CCOCC1 [Example 39, N-((4-fluoro-2-(5-(fluoromethyl)-1H-1,2,4-triazol-1-yl)phenyl)methyl)-3′-hydroxy-4′-oxo-2,3,5,6,6′,7′-hexahydro-4′H-spiro[pyran-4,10′-pyrimido[1,2-d][1,4]oxazepine]-2′-carboxamide] | 7.30 to 8.52 | 8.00 to 9.00 |  |
| Cn1ncnc1-c1cc(F)ccc1CNC(=O)c1nc2n(c(=O)c1O)CCOCC21CCOCC1 [Example 40, N-((4-fluoro-2-(1-methyl-1H-1,2,4-triazol-5-yl)phenyl)methyl)-3′-hydroxy-4′-oxo-2,3,5,6,6′,7′-hexahydro-4′H-spiro[pyran-4,10′-pyrimido[1,2-d][1,4]oxazepine]-2′-carboxamide] | 7.30 to 8.52 | 8.00 to 9.00 |  |
| Cc1nc(-c2cc(F)ccc2CNC(=O)c2nc3n(c(=O)c2O)CCOCC32CCOCC2)n(C)n1 [Example 41, N-((2-(1,3-dimethyl-1H-1,2,4-triazol-5-yl)-4-fluorophenyl)methyl)-3′-hydroxy-4′-oxo-2,3,5,6,6′,7′-hexahydro-4′H-spiro[pyran-4,10′-pyrimido[1,2-d][1,4]oxazepine]-2′-carboxamide] | 7.30 to 8.52 | 7.30 to 8.00 |  |
| Cc1n[nH]c(-c2cc(F)ccc2CNC(=O)c2nc3n(c(=O)c2O)CCOCC32CCOCC2)n1 [Example 42, N-((4-fluoro-2-(3-methyl-1H-1,2,4-triazol-5-yl)phenyl)methyl)-3′-hydroxy-4′-oxo-2,3,5,6,6′,7′-hexahydro-4′H-spiro[pyran-4,10′-pyrimido[1,2-d][1,4]oxazepine]-2′-carboxamide] | 8.52 to 9.00 | 8.00 to 9.00 |  |
